Source: PMC5905287, “Synthesis and in vitro biochemical evaluation of oxime bond-linked daunorubicin–GnRH-III conjugates developed for targeted drug delivery” (Beilstein Journal of Organic Chemistry, 2018)
Where two headings read alike, the source gives them in different places. Non-standard residues stand in square brackets, D forms with d. Residues, ends and D or L forms follow the SMILES beside them. *: point of attachment. Daunorubicin(13-NOCH2CO) = COc1cccc2c1C(=O)c1c(O)c3c(c(O)c1C2=O)C[C@@](O)(C(C)=NOCC(=O)*)C[C@@H]3O[C@H]1C[C@H](N)[C@H](O)[C@H](C)O1; pGlu = O=C1CC[C@@H](C(=O)O)N1; Butyryl = CCCC(=O)*

Key:
[1] = Degradation in rat liver lysosomal homogenate (LC-MS); assay type: in vitro ADME; conditions: rat liver lysosomal homogenate, 37 °C, pH 5
Method: In order to gain insight into the cellular release of the drug, the degradation of the Dau–GnRH-III derivatives 1–6, K1 and K2 was determined in the presence of rat liver lysosomal homogenate at 37 °C. […] However, the degradation level and the cleavage sites within the GnRH-III sequence differ considerably depending on the incorporated amino acids, whereby the hydrolyses of the C-terminus (H-Gly-NH2 and H-Pro-Gly-NH2) occurred first in all eight GnRH-III derivatives. Due to the high chemical and enzymatic stability of the oxime bond, no free Dau was detected by LC–MS. In accordance with our previous results, the digestion of the two peptides containing L-Asp in position 6 (K1, K2) provided the smallest Dau-containing metabolite (H-Lys(Dau=Aoa)-OH, m/z 729.36 [M + H]^+). This metabolite could already be detected after 1 hour of incubation in case of K2 and after 2 hours in case of K1. […] It might be assumed that D-Trp of GnRH-III–[^4Lys(Bu), ^6D-Tpr, ^8Lys(Dau=Aoa)] (6) is also accepted at the cleavage site, but due to the prior hydrolysis of the ^7Trp-^8Lys(Dau=Aoa)-bond an evidential fragment has not been detected. A reason for these diversities might be the subsite specificities of the lysosomal proteases. For instance, lysosomal cysteine proteases also known as cathepsins show a broad substrate specificity. […] For instance, the analyzed fragments of the ^6L-Asp derivatives gave clear hints for the presence of endopeptidases, while the digestion of the ^6D-Aaa compounds 1–3 gave only fragments which evidence the activity of exomono- and/or dipeptidases. Moreover, the obtained results for the bioconjugates that contain ^4Lys(Bu) (K2, 4–6) instead of serine indicate a proteolytic cleavage by lysosomal endopeptidases, which might be of great importance for the release of the smallest Dau-containing metabolite.
The rat liver lysosomal homogenate was prepared as previously described. The protein concentration was determined by Qubit Protein Assay Kit according to the manufacturer’s protocol (ThermoFisher Scientific, Waltham, MA, USA). The bioconjugates were dissolved in ddH2O to a concentration of 5 µg/µL. The reaction was carried out in 0.2 M NaOAc buffer (pH 5), with an identical concentration of bioconjugate and rat liver lysosomal homogenate (0.25 µg/µL). The reaction mixtures were incubated at 37 °C and aliquots of 15 µL were taken at 5 min, 1 h, 2 h, 4 h, 8 h and 24 h and quenched with 2 µL of acetic acid. The analysis of the samples was performed by LC–MS.

[2] = system: HT-29 human colon cancer cell line; assay: In vitro cytostatic effect, alamarBlue assay, HT-29; assay type: cell-based; conditions: HT-29, 10 µM
Description: (§1) Cell lines often function as the first model system of choice to study biological processes or to test the efficiency of drugs or drug conjugates and their cytotoxic effects. Immortal cell lines offer various benefits, for instance they are easy to handle, cost-effective and provide consistent sample and reproducible results. Nevertheless, cell lines also present the disadvantage that after a period of continuous growth, cell characteristics can change and dedifferentiate in culture. The serial passaging can cause genotypic and phenotypic variations and the state of confluency can also affect gene expression pattern in some cell lines. Due to this, the usage of internal standards during the evaluation of new potential candidates might be necessary to ensure comparability with previous results. The cytostatic effect of the novel GnRH-III bioconjugates was determined on HT-29 human colon cancer and MCF-7 human breast cancer cell lines by alamarBlue® assay. For a better comparison, the well-studied bioconjugates GnRH-III–[^8Lys(Dau=Aoa)] (K1) and GnRH-III–[^4Lys(Bu), ^8Lys(Dau=Aoa)] (K2) were used as positive controls and internal standards. The corresponding IC50 values were calculated by using nonlinear regression (sigmoidal dose response) (Figure 3, Table 2). Unfortunately, the D-Trp containing compounds 3 and 6 started to precipitate in both cell culture media at higher concentrations limiting the concentration down to a maximum of 10 µM. This effect could not be prevented by using DMSO instead of ddH2O for the preparation of the stock solutions. Unfortunately, the lower concentration range with a maximum of 10 µM was not sufficient to achieve the dose-response. […] Nevertheless, the replacement of ^6Asp by D-Asp, D-Glu or D-Trp led to a decreased cytostatic effect on the estimated cancer cell lines.
(§2) MCF-7 human breast adenocarcinoma cells were cultured in Dulbecco’s Modified Eagle Medium (DMEM, Lonza, Basel, Switzerland), supplemented with 10% (v/v) fetal bovine serum (FBS, Lonza), L-glutamine (2 mM, Lonza), non-essential amino acids (NEAA, Sigma-Aldrich Kft), sodium pyruvate (1 mM, Lonza) and penicillin-streptomycine (Lonza). […]
(§3) Cells were seeded to 96-well plates (Sarstedt, Nümbrecht, Germany, 5 × 10^3 cells/well) one day prior to the treatment in complete cell medium. […] Fluorescence was detected using Synergy H4 multi-mode microplate reader (BioTek, Winooski, VT, USA), excitation and emission wavelengths were set to 570 and 620 nm, respectively. Cytostasis was measured using 4 parallels, each experiment was repeated twice. Cytostatic effect (and IC50 values) were calculated by using nonlinear regression (sigmoidal dose response) with Origin Pro8 (OriginLab Corp., Northampton, MA, USA.).

[3] = system: MCF-7 human breast cancer cell line; assay: In vitro cytostatic effect, alamarBlue assay, MCF-7; assay type: cell-based; conditions: MCF-7, 10 µM
Description: as §1, §2, §3

trypsin = system: trypsin; design: method as in PMID 20953647, PMID 21668011; conditions: 37 °C; ref [26],[38]; cited from earlier work
[4] = design: method as in PMID 20953647, PMID 21668011; conditions: 90% human serum, 37 °C; ref [26],[38]; cited from earlier work
GnRH-RI [5] = target: T1, GnRH-RI (Homo sapiens, UniProt P30968); design: method as in PMID 22967796, PMID 25908176; conditions: human pituitary tissue; ref [29],[50]; read-out: IC50 pituitary (reported values); cited from earlier work
T1 sequence (P30968 1-328): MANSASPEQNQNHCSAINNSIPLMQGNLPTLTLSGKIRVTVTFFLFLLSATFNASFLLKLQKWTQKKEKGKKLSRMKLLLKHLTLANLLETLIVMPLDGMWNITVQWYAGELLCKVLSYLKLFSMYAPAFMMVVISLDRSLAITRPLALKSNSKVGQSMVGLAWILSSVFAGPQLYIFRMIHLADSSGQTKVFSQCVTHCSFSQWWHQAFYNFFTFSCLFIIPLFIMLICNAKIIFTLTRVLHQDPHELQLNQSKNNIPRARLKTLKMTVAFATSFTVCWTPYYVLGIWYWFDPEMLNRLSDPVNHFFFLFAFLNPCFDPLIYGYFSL

GnRH-RI [6] = target: T1, GnRH-RI; design: human prostate cancer cells were obtained from a patient at the time of initial surgical treatment; from tissue; host or cells: human prostate cancer specimen from a patient (surgery); membrane homogenate; method as in PMID 22967796, PMID 25908176; conditions: human prostate cancer tissue; ref [29],[50]; read-out: IC50 prostate cancer (reported values); cited from earlier work
GnRH-receptor = system: GnRH-receptor; design: method as in PMID 10647698, PMID 20859992; conditions: 1 pM to 1 µM; ref [51]–[52]; cited from earlier work

COc1cccc2c1C(=O)c1c(O)c3c(c(O)c1C2=O)C[C@@](O)(C(C)=NOCC(=O)NCCCC[C@H](NC(=O)[C@H](Cc1c[nH]c2ccccc12)NC(=O)[C@@H](Cc1c[nH]c2ccccc12)NC(=O)[C@H](Cc1c[nH]cn1)NC(=O)[C@H](CO)NC(=O)[C@H](Cc1c[nH]c2ccccc12)NC(=O)[C@H](Cc1c[nH]cn1)NC(=O)[C@@H]1CCC(=O)N1)C(=O)N1CCC[C@H]1C(=O)NCC(N)=O)C[C@@H]3O[C@H]1C[C@H](N)[C@H](O)[C@H](C)O1 [compound 3, [6D-Trp, 8Lys(Dau=Aoa)]] ([pGlu]HWSH[dW]WK(Daunorubicin(13-NOCH2CO))PG-NH2)
incubation time after which the smallest Dau-containing metabolite H-Lys(Dau=Aoa)-OH was detected [1]: 4 h
cell viability at the highest concentration [2]: 58%
cell viability at the highest concentration [3]: 69%

CCCC(=O)NCCCC[C@H](NC(=O)[C@H](Cc1c[nH]c2ccccc12)NC(=O)[C@H](Cc1c[nH]cn1)NC(=O)[C@@H]1CCC(=O)N1)C(=O)N[C@@H](Cc1c[nH]cn1)C(=O)N[C@H](Cc1c[nH]c2ccccc12)C(=O)N[C@@H](Cc1c[nH]c2ccccc12)C(=O)N[C@@H](CCCCNC(=O)CON=C(C)[C@]1(O)Cc2c(O)c3c(c(O)c2[C@@H](O[C@H]2C[C@H](N)[C@H](O)[C@H](C)O2)C1)C(=O)c1c(OC)cccc1C3=O)C(=O)N1CCC[C@H]1C(=O)NCC(N)=O [compound 6, GnRH-III–[^4Lys(Bu), ^6D-Tpr, ^8Lys(Dau=Aoa)]] ([pGlu]HWK(Butyryl)H[dW]WK(Daunorubicin(13-NOCH2CO))PG-NH2)
incubation time after which the smallest Dau-containing metabolite H-Lys(Dau=Aoa)-OH was detected [1]: 2 h
cell viability at the highest concentration [2]: 55%
cell viability at the highest concentration [3]: 53%

GnRH-III–[^4Lys(Ac), ^8Lys(Dau=Aoa)]
time stable in trypsin (trypsin): at least 24 h
time stable in human serum [4]: at least 24 h

GnRH-II–[D-Lys^6(Dau=Aoa)] (QHWSHKWYPG; N-terminal pyroglutamate (from Gln1); D-Lys at position 6, with daunorubicin oxime-linked through aminooxyacetyl on its epsilon-amine (Dau=Aoa); C-terminal amide; Decapeptide limits by convention (mat) [earlier reported daunorubicin–GnRH-II conjugate]
IC50 (GnRH-RI [5]): 4.2 nM
IC50 (GnRH-RI [6]): 2.1 nM

bombesin
displacement of [125I]-triptorelin (GnRH-receptor): could not inhibit the receptor binding

buserelin
displacement of [125I]-triptorelin (GnRH-receptor): displaced [^125I]-triptorelin completely

cetrorelix
displacement of [125I]-triptorelin (GnRH-receptor): displaced [^125I]-triptorelin completely

somatostatin-14
displacement of [125I]-triptorelin (GnRH-receptor): could not inhibit the receptor binding
